From patent US20090311217A1, “3-SUBSTITUTED-1H-INDOLE COMPOUNDS, THEIR USE AS MTOR KINASE AND PI3 KINASE INHIBITORS, AND THEIR SYNTHESES” (priority 2008, published 2009)

What was measured:
human TOR = target: T1, human TOR (Homo sapiens, UniProt P42345); experiment: mTOR enzyme assay (DELFIA, His6-S6K substrate); assay type: biochemical; conditions: read-out: mTOR Kinase Avg. IC50
T1 construct: FLAG

PI3K-alpha = PI3K-alpha (Homo sapiens, UniProt P42336); experiment: PI3K-alpha fluorescence polarization assay; assay type: biochemical; conditions: read-out: PI3Kα Avg. IC50
PI3K-alpha, sequence (P42336 whole entry, species assumed): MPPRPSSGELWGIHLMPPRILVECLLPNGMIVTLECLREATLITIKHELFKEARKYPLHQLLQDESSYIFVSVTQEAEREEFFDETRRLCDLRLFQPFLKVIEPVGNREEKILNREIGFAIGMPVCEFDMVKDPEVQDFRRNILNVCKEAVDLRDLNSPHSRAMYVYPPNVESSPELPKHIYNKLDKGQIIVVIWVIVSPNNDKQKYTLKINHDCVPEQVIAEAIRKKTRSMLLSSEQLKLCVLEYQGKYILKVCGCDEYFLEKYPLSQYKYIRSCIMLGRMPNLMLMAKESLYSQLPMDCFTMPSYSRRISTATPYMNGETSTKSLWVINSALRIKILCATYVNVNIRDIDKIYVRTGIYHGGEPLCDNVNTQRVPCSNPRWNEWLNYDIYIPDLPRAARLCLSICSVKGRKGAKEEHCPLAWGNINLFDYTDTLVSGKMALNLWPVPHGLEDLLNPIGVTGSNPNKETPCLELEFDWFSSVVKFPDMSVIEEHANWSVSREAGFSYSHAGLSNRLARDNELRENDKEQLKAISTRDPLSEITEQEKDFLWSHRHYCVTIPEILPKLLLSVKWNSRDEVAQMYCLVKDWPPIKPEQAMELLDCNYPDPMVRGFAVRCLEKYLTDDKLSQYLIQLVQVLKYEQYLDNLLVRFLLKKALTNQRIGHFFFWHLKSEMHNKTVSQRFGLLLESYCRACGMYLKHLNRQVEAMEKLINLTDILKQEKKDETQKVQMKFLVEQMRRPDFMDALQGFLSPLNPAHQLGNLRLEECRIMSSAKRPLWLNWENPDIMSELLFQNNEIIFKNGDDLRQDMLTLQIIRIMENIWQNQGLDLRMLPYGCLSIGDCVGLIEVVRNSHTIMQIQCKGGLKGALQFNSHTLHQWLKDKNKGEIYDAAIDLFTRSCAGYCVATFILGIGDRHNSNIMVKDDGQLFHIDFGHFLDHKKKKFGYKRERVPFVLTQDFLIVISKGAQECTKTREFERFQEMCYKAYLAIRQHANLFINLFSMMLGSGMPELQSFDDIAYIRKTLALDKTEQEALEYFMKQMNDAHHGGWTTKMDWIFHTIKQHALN
PI3K-alpha, sequence (P27986 whole entry partner, species assumed): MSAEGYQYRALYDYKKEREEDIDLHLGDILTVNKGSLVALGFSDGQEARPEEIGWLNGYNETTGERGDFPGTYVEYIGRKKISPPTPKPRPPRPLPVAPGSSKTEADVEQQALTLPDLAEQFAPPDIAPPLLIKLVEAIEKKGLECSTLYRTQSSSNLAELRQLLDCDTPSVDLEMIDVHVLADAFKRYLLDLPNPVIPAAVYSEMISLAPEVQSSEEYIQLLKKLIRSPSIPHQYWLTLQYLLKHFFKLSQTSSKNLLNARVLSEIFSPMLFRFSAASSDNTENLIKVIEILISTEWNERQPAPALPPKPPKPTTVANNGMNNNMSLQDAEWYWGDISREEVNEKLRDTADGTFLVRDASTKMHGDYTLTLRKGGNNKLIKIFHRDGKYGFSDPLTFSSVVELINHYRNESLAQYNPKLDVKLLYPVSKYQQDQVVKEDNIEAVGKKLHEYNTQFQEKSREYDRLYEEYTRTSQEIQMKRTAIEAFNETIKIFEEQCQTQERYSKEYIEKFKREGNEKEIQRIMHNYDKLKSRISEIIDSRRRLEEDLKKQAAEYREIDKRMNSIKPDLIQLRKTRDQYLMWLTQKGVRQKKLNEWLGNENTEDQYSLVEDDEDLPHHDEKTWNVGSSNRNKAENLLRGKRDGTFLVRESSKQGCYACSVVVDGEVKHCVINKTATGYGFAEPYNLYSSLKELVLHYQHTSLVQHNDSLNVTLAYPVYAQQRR

SMILES | IC50 (human TOR) [µM] | IC50 (PI3K-alpha) [µM]
CCc1cccc2c(C=C3Oc4cc(O)cc(O)c4C3=O)c[nH]c12 [Example 187, 2-[(7-ethyl-1H-indol-3-yl)methylene]-4,6-dihydroxy-1-benzofuran-3(2H)-one] | > 20 | 5
Cc1noc(C)c1-c1c(C=C2Oc3cc(O)cc(O)c3C2=O)c2ccccc2n1C [Example 191, 2-{[2-(3,5-dimethylisoxazol-4-yl)-1-methyl-1H-indol-3-yl]methylene}-4,6-dihydroxy-1-benzofuran-3(2H)-one] | 0.39 | 4.18
Cn1c(-c2cccc(O)c2)c(C=C2Oc3cc(O)cc(O)c3C2=O)c2ccccc21 [Example 192, 4,6-dihydroxy-2-{[2-(3-hydroxyphenyl)-1-methyl-1H-indol-3-yl]methylene}-1-benzofuran-3(2H)-one] | 0.39 | 2.42
COc1ccc(-c2c(C=C3Oc4cc(O)cc(O)c4C3=O)c3ccccc3n2C)cc1 [Example 195, 4,6-dihydroxy-2-{[2-(4-methoxyphenyl)-1-methyl-1H-indol-3-yl]methylene}-1-benzofuran-3(2H)-one] | 0.38 | 1.03
COc1cccc(-c2c(C=C3Oc4cc(O)cc(O)c4C3=O)c3ccccc3n2C)c1 [Example 196, 4,6-dihydroxy-2-{[2-(3-methoxyphenyl)-1-methyl-1H-indol-3-yl]methylene}-1-benzofuran-3(2H)-one] | 0.39 | 1.69
CN(C)c1ccc(-c2c(C=C3Oc4cc(O)cc(O)c4C3=O)c3ccccc3n2C)cc1 [Example 198, 2-({2-[4-(dimethylamino)phenyl]-1-methyl-1H-indol-3-yl}methylene)-4,6-dihydroxy-1-benzofuran-3(2H)-one] | 4.5 | 4.87
Cn1c(-c2ccc(F)c(Cl)c2)c(C=C2Oc3cc(O)cc(O)c3C2=O)c2ccccc21 [Example 199, 2-{[2-(3-chloro-4-fluorophenyl)-1-methyl-1H-indol-3-yl]methylene}-4,6-dihydroxy-1-benzofuran-3(2H)-one] | 1.4 | 1.56
O=C1C(=Cc2c(-c3ccsc3)[nH]c3ccccc23)Oc2cc(O)cc(O)c21 [Example 207, 4,6-dihydroxy-2-{[2-(3-thienyl)-1H-indol-3-yl]methylene}-1-benzofuran-3(2H)-one] | 0.3 | 1.29
COc1ccc(-c2[nH]c3ccccc3c2C=C2Oc3cc(O)cc(O)c3C2=O)cc1 [Example 208, 4,6-dihydroxy-2-{[2-(4-methoxyphenyl)-1H-indol-3-yl]methylene}-1-benzofuran-3(2H)-one] | 0.3 | 0.954
COc1cccc(-c2[nH]c3ccccc3c2C=C2Oc3cc(O)cc(O)c3C2=O)c1 [Example 209, 4,6-dihydroxy-2-{[2-(3-methoxyphenyl)-1H-indol-3-yl]methylene}-1-benzofuran-3(2H)-one] | 0.49 | 1.16
CN(C)c1ccc(-c2[nH]c3ccccc3c2C=C2Oc3cc(O)cc(O)c3C2=O)cc1 [Example 211, 2-({2-[4-(dimethylamino)phenyl]-1H-indol-3-yl}methylene)-4,6-dihydroxy-1-benzofuran-3(2H)-one] | 0.59 | 1.06
O=C1C(=Cc2c(-c3ccc(F)c(Cl)c3)[nH]c3ccccc23)Oc2cc(O)cc(O)c21 [Example 212, 2-{[2-(3-chloro-4-fluorophenyl)-1H-indol-3-yl]methylene}-4,6-dihydroxy-1-benzofuran-3(2H)-one] | 0.64 | 1.06
CCCn1c(-c2ccccc2)c(C=C2Oc3cc(O)cc(O)c3C2=O)c2ccccc21 [Example 214, 4,6-dihydroxy-2-[(2-phenyl-1-propyl-1H-indol-3-yl)methylene]-1-benzofuran-3(2H)-one] | 2.55 | 4.91
CC(=O)Nc1ccc2[nH]c(C)c(C=C3Oc4cc(O)cc(O)c4C3=O)c2c1 [Example 216, N-{3-[(4,6-dihydroxy-3-oxo-1-benzofuran-2(3H)-ylidene)methyl]-2-methyl-1H-indol-5-yl}acetamide] | 11.5 | 9.5
Cc1[nH]c2c(Br)cccc2c1C=C1Oc2cc(O)cc(O)c2C1=O [Example 217, 2-[(7-bromo-2-methyl-1H-indol-3-yl)methylene]-4,6-dihydroxy-1-benzofuran-3(2H)-one] | 2.4 | 1.42
Cc1[nH]c2ccc(F)cc2c1C=C1Oc2cc(O)cc(O)c2C1=O [Example 218, 2-[(5-fluoro-2-methyl-1H-indol-3-yl)methylene]-4,6-dihydroxy-1-benzofuran-3(2H)-one] | 1.65 | 0.796
COc1ccc2[nH]cc(C=C3Oc4cc(O)cc(O)c4C3=O)c2c1C [Example 219, 4,6-dihydroxy-2-[(5-methoxy-4-methyl-1H-indol-3-yl)methylene]-1-benzofuran-3(2H)-one] | > 20 | 1
N#Cc1cccc2[nH]cc(C=C3Oc4cc(O)cc(O)c4C3=O)c12 [Example 220, 3-[(4,6-dihydroxy-3-oxo-1-benzofuran-2(3H)-ylidene)methyl]-1H-indole-4-carbonitrile] | 4.3 | 1.98
O=C1C(=Cc2c[nH]c3cc(C(F)(F)F)ccc23)Oc2cc(O)cc(O)c21 [Example 221, 4,6-dihydroxy-2-{[6-(trifluoromethyl)-1H-indol-3-yl]methylene}-1-benzofuran-3(2H)-one] | > 20 | 1.16
COC(=O)c1cccc2[nH]cc(C=C3Oc4cc(O)cc(O)c4C3=O)c12 [Example 222, methyl 3-[(4,6-dihydroxy-3-oxo-1-benzofuran-2(3H)-ylidene)methyl]-1H-indole-4-carboxylate] | 2.1 | 4.46
Cc1c(C=C2Oc3cc(O)cc(O)c3C2=O)c2cc(Cl)ccc2n1C [Example 233, 2-[(5-chloro-1,2-dimethyl-1H-indol-3-yl)methylene]-4,6-dihydroxy-1-benzofuran-3(2H)-one] | 0.85 | 2.04
Cc1c(C=C2Oc3cc(O)cc(O)c3C2=O)c2cccc(Br)c2n1C [Example 234, 2-[(7-bromo-1,2-dimethyl-1H-indol-3-yl)methylene]-4,6-dihydroxy-1-benzofuran-3(2H)-one] | 14 | > 10

The next lines start with the values.

IC50 (human TOR) [µM] | IC50 (PI3K-alpha) [µM] | SMILES
1.6 | 1.47 | COc1ccc2c(c(C=C3Oc4cc(O)cc(O)c4C3=O)cn2C)c1C [Example 236, 4,6-dihydroxy-2-[(5-methoxy-1,4-dimethyl-1H-indol-3-yl)methylene]-1-benzofuran-3(2H)-one]
> 20 | 2.48 | Cn1cc(C=C2Oc3cc(O)cc(O)c3C2=O)c2ccc(C(F)(F)F)cc21 [Example 237, 4,6-dihydroxy-2-{[1-methyl-6-(trifluoromethyl)-1H-indol-3-yl]methylene}-1-benzofuran-3(2H)-one]
5.9 | 4.94 | COc1ccc2c(c(C=C3Oc4cc(O)cc(O)c4C3=O)cn2CCCC#N)c1C [Example 239, 4-{3-[(4,6-dihydroxy-3-oxo-1-benzofuran-2(3H)-ylidene)methyl]-5-methoxy-4-methyl-1H-indol-1-yl}butanenitrile]
2.7 | 3.33 | Cc1c(C=C2Oc3cc(O)cc(O)c3C2=O)c2ccccc2n1CCCC#N [Example 240, 4-{3-[(4,6-dihydroxy-3-oxo-1-benzofuran-2(3H)-ylidene)methyl]-2-methyl-1H-indol-1-yl}butanenitrile]
> 20 | 4.71 | N#CCCCn1cc(C=C2Oc3cc(O)cc(O)c3C2=O)c2ccccc21 [Example 241, 4-{3-[(4,6-dihydroxy-3-oxo-1-benzofuran-2(3H)-ylidene)methyl]-1H-indol-1-yl}butanenitrile]
0.48 | 1.05 | O=C1C(=Cc2c[nH]c3cccc(OCc4ccccc4)c23)Oc2cc(O)cc(O)c21 [Example 243, 2-{[4-(benzyloxy)-1H-indol-3-yl]methylene}-4,6-dihydroxy-1-benzofuran-3(2H)-one]
18 | 1.96 | O=C1C(=Cc2c[nH]c3c(Br)cccc23)Oc2cc(O)cc(O)c21 [Example 244, 2-[(7-bromo-1H-indol-3-yl)methylene]-4,6-dihydroxy-1-benzofuran-3(2H)-one]
> 20 | 1.49 | COC(=O)c1cccc2c(C=C3Oc4cc(O)cc(O)c4C3=O)c[nH]c12 [Example 245, methyl 3-[(4,6-dihydroxy-3-oxo-1-benzofuran-2(3H)-ylidene)methyl]-1H-indole-7-carboxylate]
2.9 | 3.15 | Cc1c(C=C2Oc3cc(O)cc(O)c3C2=O)c2ccccc2n1C [Example 247, 2-[(1,2-dimethyl-1H-indol-3-yl)methylene]-4,6-dihydroxy-1-benzofuran-3(2H)-one]
> 20 | 4.81 | Cn1cc(C=C2Oc3cc(O)cc(O)c3C2=O)c2cccc(Br)c21 [Example 249, 2-[(7-bromo-1-methyl-1H-indol-3-yl)methylene]-4,6-dihydroxy-1-benzofuran-3(2H)-one]
> 20 | 3.55 | COC(=O)c1cccc2c(C=C3Oc4cc(O)cc(O)c4C3=O)cn(C)c12 [Example 250, methyl 3-[(4,6-dihydroxy-3-oxo-1-benzofuran-2(3H)-ylidene)methyl]-1-methyl-1H-indole-7-carboxylate]
> 20 | 2.39 | COc1cccc2c(C=C3Oc4cc(O)cc(O)c4C3=O)cn(C)c12 [Example 251, 4,6-dihydroxy-2-[(7-methoxy-1-methyl-1H-indol-3-yl)methylene]-1-benzofuran-3(2H)-one]
1.5 | 0.555 | Cn1cc(C=C2Oc3cc(O)cc(O)c3C2=O)c2c(Cl)cccc21 [Example 252, 2-[(4-chloro-1-methyl-1H-indol-3-yl)methylene]-4,6-dihydroxy-1-benzofuran-3(2H)-one]
3.3 | 1.43 | Cn1cc(C=C2Oc3cc(O)cc(O)c3C2=O)c2c(Br)cccc21 [Example 253, 2-[(4-bromo-1-methyl-1H-indol-3-yl)methylene]-4,6-dihydroxy-1-benzofuran-3(2H)-one]
